± gives the standard deviation of the averaged measurements.
What was measured:
Settings in all cases: exposure time: 72 h
E13 [1] = patient-derived glioblastoma stem cells of classical subtype; experiment: surviving fraction (nuclei count normalised to DMSO); higher = more cells surviving (less toxic)
E21 [2] = patient-derived glioblastoma stem cells of mesenchymal subtype; experiment: as above
E28 [3] = patient-derived glioblastoma stem cells of classical subtype; experiment: as above
E34 [4] = patient-derived glioblastoma stem cells of proneural subtype; experiment: as above
E57 [5] = patient-derived glioblastoma stem cells of mesenchymal subtype; experiment: as above
FT3469 [6] = normal neural stem cell line; experiment: as above
E13 [7] = experiment: phenotypic distance (Euclidean, principal components) from DMSO controls (arbitrary units); higher = stronger morphological change
E21 [8] = experiment: as above
E28 [9] = experiment: as above
E34 [10] = experiment: as above
E57 [11] = experiment: as above
FT3469 [12] = experiment: as above
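For phenotypic distance (Euclidean, principal components) from DMSO controls in this document: cell Painting imaging in 384-well plates, CellProfiler features reduced to at least 20 principal components, Euclidean distance versus same-plate DMSO vehicle wells (0.1% v/v), median over six images per well.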
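For surviving fraction (nuclei count normalised to DMSO) in this document: nuclei counted by high-content imaging of Hoechst-stained cells in laminin-coated 384-well plates, relative to 0.1% DMSO vehicle wells, with staurosporine as cell-death control.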

O=C(/C=C/c1cccnc1)NCCCCC1CCN(C(=O)c2ccccc2)CC1 [Daporinad]
Settings | phenotypic distance | surviving fraction
E13 [1], 4.1 nM | – | 0.897 ± 0.13
E13 [1], 12.3 nM | – | 0.759 ± 0.11
E13 [1], 37 nM | – | 0.712 ± 0.075
E13 [1], 111.1 nM | – | 0.732 ± 0.054
E13 [1], 333.3 nM | – | 0.779 ± 0.021
E13 [1], 1000 nM | – | 0.738 ± 0.036
E13 [1], 3000 nM | – | 0.728 ± 0.03
E13 [7], 4.1 nM | 1.28 ± 1.1 | –
E13 [7], 12.3 nM | 2.03 ± 0.12 | –
E13 [7], 37 nM | 2.19 ± 0.043 | –
E13 [7], 111.1 nM | 2.19 ± 0.12 | –
E13 [7], 333.3 nM | 2.17 ± 0.12 | –
E13 [7], 1000 nM | 2.27 ± 0.04 | –
E13 [7], 3000 nM | 2.04 ± 0.04 | –
E21 [2], 4.1 nM | – | 0.918 ± 0.067
E21 [2], 12.3 nM | – | 0.977 ± 0.075
E21 [2], 37 nM | – | 1.06 ± 0.13
E21 [2], 111.1 nM | – | 0.924 ± 0.098
E21 [2], 333.3 nM | – | 0.916 ± 0.055
E21 [2], 1000 nM | – | 0.916 ± 0.0031
E21 [2], 3000 nM | – | 0.873 ± 0.021
E21 [8], 4.1 nM | 0.674 ± 0.033 | –
E21 [8], 12.3 nM | 0.879 ± 0.058 | –
E21 [8], 37 nM | 1.12 ± 0.32 | –
E21 [8], 111.1 nM | 1.73 ± 0.97 | –
E21 [8], 333.3 nM | 2.59 ± 0.067 | –
E21 [8], 1000 nM | 2.69 ± 0.2 | –
E21 [8], 3000 nM | 2.46 ± 0.37 | –
E28 [3], 4.1 nM | – | 0.436 ± 0.0093
E28 [3], 12.3 nM | – | 0.459 ± 0.097
E28 [3], 37 nM | – | 0.4196 ± 0.0027
E28 [3], 111.1 nM | – | 0.415 ± 0.077
E28 [3], 333.3 nM | – | 0.423 ± 0.068
E28 [3], 1000 nM | – | 0.351 ± 0.043
E28 [3], 3000 nM | – | 0.379 ± 0.041
E28 [9], 4.1 nM | 3.04 ± 0.13 | –
E28 [9], 12.3 nM | 3.29 ± 0.61 | –
E28 [9], 37 nM | 3.514 ± 0.027 | –
E28 [9], 111.1 nM | 3.26 ± 0.39 | –
E28 [9], 333.3 nM | 3.25 ± 0.5 | –
E28 [9], 1000 nM | 3.51 ± 0.1 | –
E28 [9], 3000 nM | 3.47 ± 0.57 | –
E34 [4], 4.1 nM | – | 1.02 ± 0.083
E34 [4], 12.3 nM | – | 0.865 ± 0.013
E34 [4], 37 nM | – | 0.916 ± 0.077
E34 [4], 111.1 nM | – | 0.851 ± 0.11
E34 [4], 333.3 nM | – | 0.922 ± 0.24
E34 [4], 1000 nM | – | 0.8551 ± 0.004
E34 [4], 3000 nM | – | 1.04 ± 0.12
E34 [10], 4.1 nM | 1.25 ± 0.28 | –
E34 [10], 12.3 nM | 1.37 ± 0.25 | –
E34 [10], 37 nM | 1.45 ± 0.064 | –
E34 [10], 111.1 nM | 1.6 ± 0.06 | –
E34 [10], 333.3 nM | 1.35 ± 0.073 | –
E34 [10], 1000 nM | 2.32 ± 1.2 | –
E34 [10], 3000 nM | 1.37 ± 0.12 | –
E57 [5], 4.1 nM | – | 0.731 ± 0.057
E57 [5], 12.3 nM | – | 0.677 ± 0.093
E57 [5], 37 nM | – | 0.693 ± 0.032
E57 [5], 111.1 nM | – | 0.71 ± 0.017
E57 [5], 333.3 nM | – | 0.668 ± 0.09
E57 [5], 1000 nM | – | 0.562 ± 0.029
E57 [5], 3000 nM | – | 0.621 ± 0.029
E57 [11], 4.1 nM | 2.92 ± 0.05 | –
E57 [11], 12.3 nM | 3.204 ± 0.027 | –
E57 [11], 37 nM | 3.213 ± 0.0053 | –
E57 [11], 111.1 nM | 3.31 ± 0.052 | –
E57 [11], 333.3 nM | 3.19 ± 0.18 | –
E57 [11], 1000 nM | 3.44 ± 0.39 | –
E57 [11], 3000 nM | 3.491 ± 0.027 | –
FT3469 [6], 4.1 nM | – | 0.8405 ± 0.0025
FT3469 [6], 12.3 nM | – | 0.956 ± 0.049
FT3469 [6], 37 nM | – | 0.831 ± 0.087
FT3469 [6], 111.1 nM | – | 0.93 ± 0.14
FT3469 [6], 333.3 nM | – | 0.899 ± 0.029
FT3469 [6], 1000 nM | – | 0.892 ± 0.048
FT3469 [6], 3000 nM | – | 0.975 ± 0.018
FT3469 [12], 4.1 nM | 2.48 ± 0.79 | –
FT3469 [12], 12.3 nM | 2 ± 0.25 | –
FT3469 [12], 37 nM | 2.62 ± 0.48 | –
FT3469 [12], 111.1 nM | 2.52 ± 0.32 | –
FT3469 [12], 333.3 nM | 2.17 ± 0.041 | –
FT3469 [12], 1000 nM | 2.56 ± 0.32 | –
FT3469 [12], 3000 nM | 2.25 ± 0.23 | –

Cc1cc(Nc2cc(CN3CCOCC3)c3nc(C)c(Cc4ccc(Cl)cc4F)n3n2)n[nH]1 [Gandotinib]
Settings | phenotypic distance | surviving fraction
E13 [1], 4.1 nM | – | 1.02 ± 0.093
E13 [1], 12.3 nM | – | 0.923 ± 0.012
E13 [1], 37 nM | – | 0.933 ± 0.02
E13 [1], 111.1 nM | – | 0.946 ± 0.038
E13 [1], 333.3 nM | – | 0.818 ± 0.03
E13 [1], 1000 nM | – | 0.791 ± 0.045
E13 [1], 3000 nM | – | 0.626 ± 0.02
E13 [7], 4.1 nM | 0.676 ± 0.052 | –
E13 [7], 12.3 nM | 0.87 ± 0.42 | –
E13 [7], 37 nM | 0.987 ± 0.23 | –
E13 [7], 111.1 nM | 1.47 ± 0.41 | –
E13 [7], 333.3 nM | 1.57 ± 0.083 | –
E13 [7], 1000 nM | 1.9 ± 0.19 | –
E13 [7], 3000 nM | 2.7 ± 0.044 | –
E21 [2], 4.1 nM | – | 1.07 ± 0.078
E21 [2], 12.3 nM | – | 1.02 ± 0.018
E21 [2], 37 nM | – | 1.03 ± 0.049
E21 [2], 111.1 nM | – | 0.918 ± 0.025
E21 [2], 333.3 nM | – | 0.724 ± 0.0084
E21 [2], 1000 nM | – | 0.505 ± 0.012
E21 [2], 3000 nM | – | 0.164 ± 0.071
E21 [8], 4.1 nM | 1.3 ± 0.8 | –
E21 [8], 12.3 nM | 0.9953 ± 0.0043 | –
E21 [8], 37 nM | 1.34 ± 0.25 | –
E21 [8], 111.1 nM | 1.92 ± 0.29 | –
E21 [8], 333.3 nM | 2.89 ± 0.21 | –
E21 [8], 1000 nM | 4.83 ± 0.15 | –
E21 [8], 3000 nM | 9.25 ± 0.9 | –
E28 [3], 4.1 nM | – | 1.03 ± 0.024
E28 [3], 12.3 nM | – | 0.979 ± 0.075
E28 [3], 37 nM | – | 1.06 ± 0.019
E28 [3], 111.1 nM | – | 1.02 ± 0.091
E28 [3], 333.3 nM | – | 0.865 ± 0.13
E28 [3], 1000 nM | – | 0.673 ± 0.059
E28 [3], 3000 nM | – | 0.335 ± 0.004
E28 [9], 4.1 nM | 0.402 ± 0.081 | –
E28 [9], 12.3 nM | 0.536 ± 0.22 | –
E28 [9], 37 nM | 0.979 ± 0.057 | –
E28 [9], 111.1 nM | 1.01 ± 0.12 | –
E28 [9], 333.3 nM | 1.15 ± 0.086 | –
E28 [9], 1000 nM | 1.63 ± 0.33 | –
E28 [9], 3000 nM | 3.72 ± 0.25 | –
E34 [4], 4.1 nM | – | 0.94 ± 0.011
E34 [4], 12.3 nM | – | 0.77 ± 0.079
E34 [4], 37 nM | – | 0.6589 ± 0.0013
E34 [4], 111.1 nM | – | 0.511 ± 0.065
E34 [4], 333.3 nM | – | 0.44 ± 0.049
E34 [4], 1000 nM | – | 0.4 ± 0.016
E34 [4], 3000 nM | – | 0.316 ± 0.016
E34 [10], 4.1 nM | 1.52 ± 0.43 | –
E34 [10], 12.3 nM | 2.31 ± 0.2 | –
E34 [10], 37 nM | 3.63 ± 0.68 | –
E34 [10], 111.1 nM | 5.44 ± 0.36 | –
E34 [10], 333.3 nM | 7.1 ± 0.9 | –
E34 [10], 1000 nM | 7.41 ± 0.58 | –
E34 [10], 3000 nM | 7.42 ± 0.59 | –
E57 [5], 4.1 nM | – | 1.061 ± 0.009
E57 [5], 12.3 nM | – | 0.946 ± 0.027
E57 [5], 37 nM | – | 0.903 ± 0.097
E57 [5], 111.1 nM | – | 0.781 ± 0.028
E57 [5], 333.3 nM | – | 0.534 ± 0.032
E57 [5], 1000 nM | – | 0.42 ± 0.029
E57 [5], 3000 nM | – | 0.193 ± 0.047
E57 [11], 4.1 nM | 0.653 ± 0.12 | –
E57 [11], 12.3 nM | 0.688 ± 0.39 | –
E57 [11], 37 nM | 1.33 ± 0.22 | –
E57 [11], 111.1 nM | 1.76 ± 0.15 | –
E57 [11], 333.3 nM | 2.18 ± 0.16 | –
E57 [11], 1000 nM | 2.93 ± 0.22 | –
E57 [11], 3000 nM | 5.26 ± 0.74 | –
FT3469 [6], 4.1 nM | – | 0.931 ± 0.1
FT3469 [6], 12.3 nM | – | 0.889 ± 0.023
FT3469 [6], 37 nM | – | 0.969 ± 0.014
FT3469 [6], 111.1 nM | – | 0.97 ± 0.044
FT3469 [6], 333.3 nM | – | 0.9328 ± 0.0038
FT3469 [6], 1000 nM | – | 0.806 ± 0.068
FT3469 [6], 3000 nM | – | 0.584 ± 0.046
FT3469 [12], 4.1 nM | 0.44 ± 0.23 | –
FT3469 [12], 12.3 nM | 0.627 ± 0.28 | –
FT3469 [12], 37 nM | 0.479 ± 0.12 | –
FT3469 [12], 111.1 nM | 1.67 ± 1.5 | –
FT3469 [12], 333.3 nM | 0.785 ± 0.077 | –
FT3469 [12], 1000 nM | 0.863 ± 0.31 | –
FT3469 [12], 3000 nM | 2.05 ± 0.44 | –

Reference: the supplement of paper PMC13207355
